The source of these data is PMC6325563 (eNeuro, 2019).

The IC50 is the concentration at which inhibition is half-maximal.

What all share (assay): two-electrode voltage clamp, Xenopus oocytes
Common to all, as to format: cell-based
On the technique in general: Two-electrode voltage clamp holds a large cell at a set potential and records current.

Assay [1] has as its target T1, (α4)3(β2)2 nAChR (low sensitivity) (Rattus norvegicus, UniProt P09483+P12390).
T1 construct: gene Chrna4; subunits in pGEMhe, mRNA alpha4:beta2 10:1 injected in Xenopus laevis oocytes; pentamer
An excerpt: (§1) two-electrode voltage clamp, Xenopus oocytes on (α4)3(β2)2 nAChR (low sensitivity)

The target in assay [2] is T2, (α4)2(β2)3 nAChR (high sensitivity) (Rattus norvegicus, UniProt P09483+P12390).
T2 construct: gene Chrna4; subunits in pGEMhe, mRNA alpha4:beta2 1:10 injected in Xenopus laevis oocytes; pentamer
The text has this: (§2) two-electrode voltage clamp, Xenopus oocytes on (α4)2(β2)3 nAChR (high sensitivity)

Another assay concerns the target T3, α5[wt](α4[wt]β2[wt])2 (Rattus norvegicus, UniProt P09483+P12390).
T3 construct: gene Chrna4; Xenopus laevis oocytes; alpha5 in the auxiliary position of alpha4beta2
As to conditions: read-out: IC50 (μM (-)-menthol) ± SEM. An excerpt:
two-electrode voltage clamp, Xenopus oocytes on α5[wt](α4[wt]β2[wt])2

The target of assay [3] is T4, (α4)3(β2)2 nAChR (low sensitivity) (Rattus norvegicus, UniProt P09483+P12390, P09483:L285I).
T4 construct: gene Chrna4; subunits in pGEMhe, mRNA alpha4:beta2 10:1 injected in Xenopus laevis oocytes; pentamer
As to conditions: read-out: IC50 (μM (-)-menthol) ± SEM.
Text: as §1

For assay [4], the target named is T5, (α4)3(β2)2 nAChR (low sensitivity) (Rattus norvegicus, UniProt P09483+P12390, P09483:L285M).
T5 construct: gene Chrna4; subunits in pGEMhe, mRNA alpha4:beta2 10:1 injected in Xenopus laevis oocytes; pentamer
As to conditions: read-out: IC50 (μM (-)-menthol) ± SEM.
Text: as §1

In assay [5] the target is T6, (α4)3(β2)2 nAChR (low sensitivity) (Rattus norvegicus, UniProt P09483+P12390, P09483:S286L).
T6 construct: gene Chrna4; subunits in pGEMhe, mRNA alpha4:beta2 10:1 injected in Xenopus laevis oocytes; pentamer
As to conditions: read-out: IC50 (μM (-)-menthol) ± SEM.
Text: as §1

Assay [6] addresses T7, (α4)2(β2)3 nAChR (high sensitivity) (Rattus norvegicus, UniProt P09483+P12390, P09483:L285C).
T7 construct: gene Chrna4; subunits in pGEMhe, mRNA alpha4:beta2 1:10 injected in Xenopus laevis oocytes; pentamer
As to conditions: read-out: IC50 (μM (-)-menthol) ± SEM.
Text: as §2

Assay [7] deals with T8, (α4)2(β2)3 nAChR (high sensitivity) (Rattus norvegicus, UniProt P09483+P12390, P09483:L285F).
T8 construct: gene Chrna4; subunits in pGEMhe, mRNA alpha4:beta2 1:10 injected in Xenopus laevis oocytes; pentamer
As to conditions: read-out: IC50 (μM (-)-menthol) ± SEM.
Text: as §2

Assay [8] addresses T9, (α4)2(β2)3 nAChR (high sensitivity) (Rattus norvegicus, UniProt P09483+P12390, P09483:L285I).
T9 construct: gene Chrna4; subunits in pGEMhe, mRNA alpha4:beta2 1:10 injected in Xenopus laevis oocytes; pentamer
As to conditions: read-out: IC50 (μM (-)-menthol) ± SEM.
Text: as §2

The target in assay [9] is T10, (α4)2(β2)3 nAChR (high sensitivity) (Rattus norvegicus, UniProt P09483+P12390, P09483:L285M).
T10 construct: gene Chrna4; subunits in pGEMhe, mRNA alpha4:beta2 1:10 injected in Xenopus laevis oocytes; pentamer
The conditions noted are these: read-out: IC50 (μM (-)-menthol) ± SEM.
Text: as §2

Assay [10] addresses T11, (α4)2(β2)3 nAChR (high sensitivity) (Rattus norvegicus, UniProt P09483+P12390, P09483:L285Q).
T11 construct: gene Chrna4; subunits in pGEMhe, mRNA alpha4:beta2 1:10 injected in Xenopus laevis oocytes; pentamer
As to conditions: read-out: IC50 (μM (-)-menthol) ± SEM.
Text: as §2

Assay [11] addresses T12, (α4)2(β2)3 nAChR (high sensitivity) (Rattus norvegicus, UniProt P09483+P12390, P09483:L285S).
T12 construct: gene Chrna4; subunits in pGEMhe, mRNA alpha4:beta2 1:10 injected in Xenopus laevis oocytes; pentamer
The conditions noted are these: read-out: IC50 (μM (-)-menthol) ± SEM.
Text: as §2

For assay [12], the target named is T13, (α4)2(β2)3 nAChR (high sensitivity) (Rattus norvegicus, UniProt P09483+P12390, P09483:L285W).
T13 construct: gene Chrna4; subunits in pGEMhe, mRNA alpha4:beta2 1:10 injected in Xenopus laevis oocytes; pentamer
As to conditions: read-out: IC50 (μM (-)-menthol) ± SEM.
Text: as §2

T1 sequence (P09483 31-630): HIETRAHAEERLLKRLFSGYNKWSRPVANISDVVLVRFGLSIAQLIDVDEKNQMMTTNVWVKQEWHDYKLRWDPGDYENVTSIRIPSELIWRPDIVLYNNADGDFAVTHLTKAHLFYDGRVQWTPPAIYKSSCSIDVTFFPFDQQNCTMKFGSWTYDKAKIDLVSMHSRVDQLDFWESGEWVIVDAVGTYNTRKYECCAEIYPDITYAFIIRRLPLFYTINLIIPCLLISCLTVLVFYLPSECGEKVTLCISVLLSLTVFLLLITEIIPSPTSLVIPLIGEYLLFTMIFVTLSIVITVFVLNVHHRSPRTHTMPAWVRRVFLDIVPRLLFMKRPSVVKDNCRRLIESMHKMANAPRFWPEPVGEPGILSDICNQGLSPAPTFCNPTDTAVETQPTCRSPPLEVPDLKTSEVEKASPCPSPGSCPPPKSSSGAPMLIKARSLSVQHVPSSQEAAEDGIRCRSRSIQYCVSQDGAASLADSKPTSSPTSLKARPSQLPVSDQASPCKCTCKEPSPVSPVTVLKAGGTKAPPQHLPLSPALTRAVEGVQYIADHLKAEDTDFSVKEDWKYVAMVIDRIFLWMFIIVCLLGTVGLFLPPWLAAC
T1 sequence (P12390 25-500): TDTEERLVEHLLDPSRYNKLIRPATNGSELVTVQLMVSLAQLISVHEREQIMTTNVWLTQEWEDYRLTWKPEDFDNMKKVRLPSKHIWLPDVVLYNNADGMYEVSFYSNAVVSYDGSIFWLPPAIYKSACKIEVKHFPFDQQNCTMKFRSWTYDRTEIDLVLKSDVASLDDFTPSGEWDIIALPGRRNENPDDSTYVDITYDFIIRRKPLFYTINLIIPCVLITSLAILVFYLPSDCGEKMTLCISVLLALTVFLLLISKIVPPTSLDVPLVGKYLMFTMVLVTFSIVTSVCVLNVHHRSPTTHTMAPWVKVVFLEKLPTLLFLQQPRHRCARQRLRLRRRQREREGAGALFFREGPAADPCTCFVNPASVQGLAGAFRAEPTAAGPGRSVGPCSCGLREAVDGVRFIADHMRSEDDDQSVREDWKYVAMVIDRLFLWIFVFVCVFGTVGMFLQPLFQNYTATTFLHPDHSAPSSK
T2 sequence (P09483 31-630): as the sequence (P09483 31-630) above
T2 sequence (P12390 25-500): as the sequence (P12390 25-500) above
T13 sequence (P09483 31-630 L285W): as the sequence (P09483 31-630) above, with L255W counted along it
T13 sequence (P12390 25-500): as the sequence (P12390 25-500) above
T8 sequence (P09483 31-630 L285F): as the sequence (P09483 31-630) above, with L255F counted along it
T8 sequence (P12390 25-500): as the sequence (P12390 25-500) above
T5 sequence (P09483 31-630 L285M): as the sequence (P09483 31-630) above, with L255M counted along it
T5 sequence (P12390 25-500): as the sequence (P12390 25-500) above
T10 sequence (P09483 31-630 L285M): as the sequence (P09483 31-630) above, with L255M counted along it
T10 sequence (P12390 25-500): as the sequence (P12390 25-500) above
T4 sequence (P09483 31-630 L285I): as the sequence (P09483 31-630) above, with L255I counted along it
T4 sequence (P12390 25-500): as the sequence (P12390 25-500) above
T9 sequence (P09483 31-630 L285I): as the sequence (P09483 31-630) above, with L255I counted along it
T9 sequence (P12390 25-500): as the sequence (P12390 25-500) above
T6 sequence (P09483 31-630 S286L): as the sequence (P09483 31-630) above, with S256L counted along it
T6 sequence (P12390 25-500): as the sequence (P12390 25-500) above
T12 sequence (P09483 31-630 L285S): as the sequence (P09483 31-630) above, with L255S counted along it
T12 sequence (P12390 25-500): as the sequence (P12390 25-500) above
T3 sequence (P09483 31-630): as the sequence (P09483 31-630) above
T3 sequence (P12390 25-500): as the sequence (P12390 25-500) above
T3 sequence (P20420 28-452 partner): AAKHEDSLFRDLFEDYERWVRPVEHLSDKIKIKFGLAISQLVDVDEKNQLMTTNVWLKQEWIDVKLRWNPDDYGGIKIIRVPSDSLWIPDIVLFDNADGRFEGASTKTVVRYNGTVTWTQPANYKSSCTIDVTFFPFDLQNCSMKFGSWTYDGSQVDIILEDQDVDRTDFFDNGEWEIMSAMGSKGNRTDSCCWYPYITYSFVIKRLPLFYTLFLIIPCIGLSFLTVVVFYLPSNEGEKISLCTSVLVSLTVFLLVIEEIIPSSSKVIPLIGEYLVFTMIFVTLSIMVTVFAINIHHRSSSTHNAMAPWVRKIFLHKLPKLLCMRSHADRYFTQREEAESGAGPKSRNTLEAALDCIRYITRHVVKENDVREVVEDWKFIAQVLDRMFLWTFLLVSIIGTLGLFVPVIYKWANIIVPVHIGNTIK
T7 sequence (P09483 31-630 L285C): as the sequence (P09483 31-630) above, with L255C counted along it
T7 sequence (P12390 25-500): as the sequence (P12390 25-500) above
T11 sequence (P09483 31-630 L285Q): as the sequence (P09483 31-630) above, with L255Q counted along it
T11 sequence (P12390 25-500): as the sequence (P12390 25-500) above

With `CC(C)[C@H]1CC[C@H](C)C[C@@H]1O` [(+)-menthol], the IC50 in assay [1] was found to be 45.5 ± 2.03 µM; in [2], 48.3 ± 1.67 µM.

For the compound `CC(C)[C@@H]1CC[C@@H](C)C[C@H]1O` [(−)-menthol], the IC50 on α5[wt](α4[wt]β2[wt])2 was found to be 51 ± 9.06 µM; in assay [1], 33.1 ± 1.83 µM; in [3] it was 127 ± 29.1 µM; in assay [4] it was 39.2 ± 7.98 µM; in [5], 29.4 ± 4.32 µM; in assay [2] it was 44.9 ± 1.62 µM. Besides, the IC50 in assay [6] was 306 ± 173 µM; in [7] it was 211 ± 75.6 µM; in assay [8], 97.3 ± 38.5 µM; in [9], 26.6 ± 1.9 µM; in assay [10] it was 165 ± 28.1 µM; in assay [11], 514 ± 361 µM. The IC50 in assay [12] worked out at 28.8 ± 3.26 µM.
